Measured values as given in US20220105093A1, “PHARMACEUTICAL COMPOSITIONS AND COMBINATIONS COMPRISING INHIBITORS OF THE ANDROGEN RECEPTOR AND USES THEREOF” (ESSA Pharma, Inc., priority 2020, published 2022).

Columns and labels:
[1] = test system: androgen responsive genes in LNCaP cells; test: mRNA expression of androgen responsive genes in LNCaP cells (NanoString AR/Prostate Cancer gene panel)
[2] = In vivo pharmacokinetics in plasma after oral gavage; conditions: mouse, male CD-1 mice
Procedure: The purpose of this study is to determine the pharmacokinetics of the tested compounds in plasma, following oral gavage administration (PO) to male CD-1 mice.
Animal Husbandry: Animals were group housed during acclimation and the study. The animal room environment were controlled (target conditions: temperature 18 to 26° C., relative humidity 30 to 70%, 12 hours artificial light and 12 hours dark). Temperature and relative humidity were monitored daily. Animals were fasted at least 12 hours prior to the administration. All animals had access to Certified Rodent Diet ad libitum 4 hours post dosing.
Dose Formulation: prepared 85-100 μL of a stock solution of representative compounds of the disclosure in DMSO at 50 mM; 1.5% v/v of Tween 80 were added and mixed gently; 95.5% v/v saline was added gently to the organic phase. The solution was mixed slowly by reverse pipetting to get a clear solution.
Dose Administration: the dose formulations were administered via oral gavage per facility SOPs. The dose volume were determined by the animals' body weight collected on the morning of dosing day
Sample Collection: blood collection (about 0.05 mL per time point) was performed from saphenous vein of each animal into polypropylene tubes at each timepoints (0, 0.25, 0.5, 1, 2, 4, 8, 12, and 24 hr). All blood samples were transferred into pre-chilled tubes containing 2 μL of K2-EDTA (0.5M) and placed on wet ice until centrifugation. Each collected blood sample was in the wet-ice before centrifugation. Each collected blood was under centrifugation for 15 minutes at 4° C. and 3000 g for plasma collection. Plasma samples were stored in polypropylene tubes, quickly frozen over dry ice and kept at −70±10° C. until LC/MS/MS analysis.
Bioanalytical analysis: A LC-MS/MS method for the quantitative determination of tested compound in biological matrix were developed under non-GLP compliance. A calibration curve with at least 7 non-zero calibration standards were applied for the method including LLOQ.
Plasma concentration versus time data were analyzed by non-compartmental approaches using the Phoenix WinNonlin 6.3 software program. Cl, Vdss, C0, Cmax, Tmax, T½, AUC(0-t), AUC(0-inf), MRT(0-t), MRT(0-inf), % F (oral availability) and graphs of plasma concentration versus time profile were reported.

[3] = test system: androgen responsive genes in VCaP cells; test: mRNA expression of androgen responsive genes in VCaP cells (RNAseq); assay type: cell-based
Procedure: Relative mRNA expression in VCaP was measured to assess response of Compound A, enzalutamide (Enza), apalutamide (Apa), or darolutamide (Daro) alone or Compound A in combination with Enza, Apa, or Daro, in androgen responsive genes.

[4] = enzalutamide in plasma, single PO dose 15.0 mg/kg, single agent or with Compound A
[5] = Compound A in plasma, single PO dose 60.00 mg/kg, single agent or with enzalutamide

Row | AUC(0-t) [2, 4] | Cmax [2, 4] | Tmax [2, 4] | AUC(0-t) [2, 5] | Cmax [2, 5] | Tmax [2, 5] | half-life ([2]; Compound A in plasma, single PO dose 60.00 mg/kg, single agent or with enzalutamide, read-out: T½ (converted)) | SMILES | Log2Fold Change CDC6 ([1]; LNCaP, 7.5 μM) | Log2Fold Change ERRFl1 ([1]; LNCaP, 7.5 μM) | Log2Fold Change SNAl2 ([1]; LNCaP, 7.5 μM) | Relative mRNA expression of androgen response genes FKBP5, TMPRSS2, KLK2, KLK3, and NKX3.1 ([1]; LNCaP cells (FIG. 6A)) | inhibition of canonical AR dependent genes ([3]; Compound A at 10 μM in combination with the 'lutamides (FIGS. 11A, 11B)) | synergy on androgen responsive gene expression ([3]; Compound A at 10 μM with Enza, Apa or Daro, R1881 stimulation (FIG. 10))
1 | 388 µg·h/mL | 21100 ng/mL | 9 h |  |  |  |  | CNC(=O)c1ccc(N2C(=S)N(c3ccc(C#N)c(C(F)(F)F)c3)C(=O)C2(C)C)cc1F [Enzalutamide, enzalutamide, reference compound] | −1.20 | −4.51 | −3.97 |  |  | 
2 |  |  |  | 483 µg·h/mL | 41700 ng/mL | 4 h | 5.4 h | CC(C)(c1ccc(OCc2ccnc(NS(C)(=O)=O)n2)cc1)c1cc(Cl)c(OCCCl)c(C#N)c1 [Compound A, N-(4-((4-(2-(3-chloro-4-(2-chloroethoxy)-5-cyanophenyl)propan-2-yl)phenoxy)methyl)pyrimidin-2-yl)methanesulfonamide] |  | −2.76 | −1.79 | dose-dependent response | superior inhibition of responsive genes | can synergize with Enza, Apa, and Daro
